ChEMBL document CHEMBL4823275, “Structure-based molecular hybridization design of Keap1-Nrf2 inhibitors as novel protective agents of acute lung injury” (Eur J Med Chem, 2021)
The source made the active and inactive calls. No cut-off for these calls is given here.

Experiments:
[1] = biological target: Keap1/Nrf2 (Homo sapiens, UniProt Q14145); experiment: Inhibition of Keap1-Nrf2 (unknown origin) interaction measured after 60 mins by Fluorescence polarization assay; format: protein assay
[2] = Cytotoxicity against mouse peritoneal macrophages assessed as reduction in cell viability measured after 24 hrs by CCK8 assay; format: cell-based, Peritoneal macrophage
[3] = system: Mus musculus; experiment: Anti-inflammatory activity against LPS-induced acute lung injury C57BL/6 mouse model assessed as reduction in LPS-induced TNF-alpha mRNA expression in lungs at 5 to 20 mg/kg, ip treated 0.5 hrs before LPS stimulation and measured after 6 hrs by RT-PCR analysis; format: functional, organism-based; conditions: dose 5-20 mg/kg, time 6.5 hrs
[4] = biological target: T1, Kelch-like ECH-associated protein 1/Nuclear factor erythroid 2-related factor 2 (Mus musculus) (UniProt Q60795+Q9Z2X8); experiment: Inhibition of Keap1-Nrf2 interaction in mouse peritoneal macrophages assessed as upregulation of HO-1 protein expression at 10 uM by Western blot analysis; format: tissue-based; conditions: Peritoneal macrophage, time 1-6 hrs, TDE = time-dependent effect
[5] = biological target: T1, Kelch-like ECH-associated protein 1/Nuclear factor erythroid 2-related factor 2 (Mus musculus); experiment: Inhibition of Keap1-Nrf2 interaction in mouse peritoneal macrophages assessed as upregulation of NQO1 protein expression at 10 uM by Western blot analysis; format: tissue-based; conditions: Peritoneal macrophage, time 1-6 hrs, TDE = time-dependent effect
[6] = system: Mus musculus; experiment: In vivo inhibition of Keap1-Nrf2 interaction in LPS-induced acute lung injury C57BL/6 mouse model assessed as increase in Nrf2 nuclear translocation in lungs by measuring decrease in cytosolic Nrf2 level treated intraperitoneally at 0.5 hrs before LPS stimulation and measured after 6 hrs by western blot analysis; format: functional, organism-based; conditions: dose 5-20 mg/kg, time 6.5 hrs
[7] = system: Peritoneal macrophage; experiment: Antiinflammatory activity against mouse peritoneal macrophages assessed as inhibition of LPS-stimulated ROS production at 10 uM incubated for 6 hrs by DCFH-DA staining based fluorescence analysis; format: functional, cell-based
[8] = system: Mus musculus; experiment: Antiinflammatory activity against LPS-induced acute lung injury C57BL/6 mouse model assessed as mild alveolar thickening with less bleeding points/congestion in lungs at 5 to 20 mg/kg, ip treated 0.5 hrs before LPS stimulation and measured after 6 hrs by hematoxylin and eosin staining based microscopic analysis; format: functional, organism-based; conditions: dose 5-20 mg/kg, time 6.5 hrs
[9] = system: Mus musculus; experiment: In vivo inhibition of Keap1-Nrf2 interaction in LPS-induced acute lung injury C57BL/6 mouse model assessed as increase in Nrf2 nuclear translocation in lungs by measuring increase in nuclear Nrf2 level treated intraperitoneally at 0.5 hrs before LPS stimulation and measured after 6 hrs by western blot analysis; format: functional, organism-based; conditions: dose 5-20 mg/kg, time 6.5 hrs
[10] = biological target: T1, Kelch-like ECH-associated protein 1/Nuclear factor erythroid 2-related factor 2 (Mus musculus); experiment: Inhibition of Keap1-Nrf2 interaction in mouse peritoneal macrophages assessed as increase in nuclear translocation of Nrf2 by measuring decrease in cytosolic Nrf2 level at 10 uM measured after 3 to 6 hrs by Western blot analysis; format: subcellular; conditions: Peritoneal macrophage, Cytosol, time 3-6 hrs
[11] = system: Mus musculus; experiment: Anti-inflammatory activity against LPS-induced acute lung injury C57BL/6 mouse model assessed as reduction in LPS-induced IL-1 beta mRNA expression in lungs at 5 to 20 mg/kg, ip treated 0.5 hrs before LPS stimulation and measured after 6 hrs by RT-PCR analysis; format: functional, organism-based; conditions: dose 5-20 mg/kg, time 6.5 hrs
[12] = system: Mus musculus; experiment: Anti-inflammatory activity against LPS-induced acute lung injury C57BL/6 mouse model assessed as reduction in LPS-induced IL-6 mRNA expression in lungs at 5 to 20 mg/kg, ip treated 0.5 hrs before LPS stimulation and measured after 6 hrs by RT-PCR analysis; format: functional, organism-based; conditions: dose 5-20 mg/kg, time 6.5 hrs
[13] = biological target: T1, Kelch-like ECH-associated protein 1/Nuclear factor erythroid 2-related factor 2 (Mus musculus); experiment: Inhibition of Keap1-Nrf2 interaction in mouse peritoneal macrophages assessed as increase in nuclear translocation of Nrf2 by measuring increase in nuclear Nrf2 level at 10 uM measured after 3 to 6 hrs by Western blot analysis; format: subcellular; conditions: Peritoneal macrophage, Nucleus, time 3-6 hrs
[14] = system: Mus musculus; experiment: Anti-inflammatory activity against LPS-induced acute lung injury C57BL/6 mouse model assessed as reduction in LPS-induced TNF-alpha secretion in BALF at 5 to 20 mg/kg, ip treated 0.5 hrs before LPS stimulation and measured after 6 hrs by ELISA; format: functional, organism-based; conditions: dose 5-20 mg/kg, time 6.5 hrs
[15] = system: Peritoneal macrophage; experiment: Antiinflammatory activity against mouse peritoneal macrophages assessed as inhibition of LPS-induced NO production at 10 uM measured after 24 hrs by Griess assay; format: functional, cell-based
[16] = system: Peritoneal macrophage; experiment: Antiinflammatory activity against mouse peritoneal macrophages assessed as reduction in LPS-induced TNFalpha production at 10 uM measured after 24 hrs by ELISA; format: functional, cell-based
[17] = system: Mus musculus; experiment: Anti-inflammatory activity against LPS-induced acute lung injury C57BL/6 mouse model assessed as reduction in LPS-induced IL-1 beta secretion in BALF at 5 to 20 mg/kg, ip treated 0.5 hrs before LPS stimulation and measured after 6 hrs by ELISA; format: functional, organism-based; conditions: dose 5-20 mg/kg, time 6.5 hrs
[18] = system: Mus musculus; experiment: Antiinflammatory activity against LPS-induced acute lung injury C57BL/6 mouse model assessed as intact alveolar structure with reduced inflammatory cells infiltration in lungs at 5 to 20 mg/kg, ip treated 0.5 hrs before LPS stimulation and measured after 6 hrs by hematoxylin and eosin staining based microscopic analysis; format: functional, organism-based; conditions: dose 5-20 mg/kg, time 6.5 hrs

T1 sequence (Q60795 whole entry, looked up): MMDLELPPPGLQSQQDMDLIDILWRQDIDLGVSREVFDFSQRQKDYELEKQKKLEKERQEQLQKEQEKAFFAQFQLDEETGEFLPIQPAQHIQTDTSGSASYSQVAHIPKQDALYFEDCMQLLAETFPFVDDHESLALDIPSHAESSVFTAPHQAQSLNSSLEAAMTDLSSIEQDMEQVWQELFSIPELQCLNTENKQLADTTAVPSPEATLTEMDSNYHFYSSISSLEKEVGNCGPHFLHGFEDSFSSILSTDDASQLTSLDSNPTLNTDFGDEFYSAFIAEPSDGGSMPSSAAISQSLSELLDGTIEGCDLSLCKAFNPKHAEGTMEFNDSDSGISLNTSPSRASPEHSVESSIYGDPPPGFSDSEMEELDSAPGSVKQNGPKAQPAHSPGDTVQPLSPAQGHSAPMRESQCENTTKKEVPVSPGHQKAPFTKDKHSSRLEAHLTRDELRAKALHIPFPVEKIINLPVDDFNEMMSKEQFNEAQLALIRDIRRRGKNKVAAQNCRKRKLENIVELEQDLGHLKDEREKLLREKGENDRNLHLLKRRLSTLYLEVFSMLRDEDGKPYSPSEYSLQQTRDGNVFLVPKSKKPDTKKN
T1 sequence (Q9Z2X8 whole entry, looked up): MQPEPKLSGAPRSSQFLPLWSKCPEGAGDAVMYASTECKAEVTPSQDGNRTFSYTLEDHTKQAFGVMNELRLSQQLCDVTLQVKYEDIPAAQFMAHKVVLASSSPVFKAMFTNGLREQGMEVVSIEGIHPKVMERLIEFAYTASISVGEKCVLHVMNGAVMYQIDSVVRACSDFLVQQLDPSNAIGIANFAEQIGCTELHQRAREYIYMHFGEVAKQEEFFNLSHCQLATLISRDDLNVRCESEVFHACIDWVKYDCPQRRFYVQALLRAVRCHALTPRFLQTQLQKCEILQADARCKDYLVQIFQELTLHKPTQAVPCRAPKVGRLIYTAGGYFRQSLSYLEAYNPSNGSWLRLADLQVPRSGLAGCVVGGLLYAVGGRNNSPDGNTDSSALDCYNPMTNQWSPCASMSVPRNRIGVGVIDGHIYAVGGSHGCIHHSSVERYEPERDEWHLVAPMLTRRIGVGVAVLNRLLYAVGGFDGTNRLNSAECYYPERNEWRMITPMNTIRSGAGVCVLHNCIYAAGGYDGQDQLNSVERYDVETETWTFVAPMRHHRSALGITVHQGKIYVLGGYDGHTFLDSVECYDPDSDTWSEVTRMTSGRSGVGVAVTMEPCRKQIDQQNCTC
Keap1/Nrf2, sequence (Q16236 whole entry): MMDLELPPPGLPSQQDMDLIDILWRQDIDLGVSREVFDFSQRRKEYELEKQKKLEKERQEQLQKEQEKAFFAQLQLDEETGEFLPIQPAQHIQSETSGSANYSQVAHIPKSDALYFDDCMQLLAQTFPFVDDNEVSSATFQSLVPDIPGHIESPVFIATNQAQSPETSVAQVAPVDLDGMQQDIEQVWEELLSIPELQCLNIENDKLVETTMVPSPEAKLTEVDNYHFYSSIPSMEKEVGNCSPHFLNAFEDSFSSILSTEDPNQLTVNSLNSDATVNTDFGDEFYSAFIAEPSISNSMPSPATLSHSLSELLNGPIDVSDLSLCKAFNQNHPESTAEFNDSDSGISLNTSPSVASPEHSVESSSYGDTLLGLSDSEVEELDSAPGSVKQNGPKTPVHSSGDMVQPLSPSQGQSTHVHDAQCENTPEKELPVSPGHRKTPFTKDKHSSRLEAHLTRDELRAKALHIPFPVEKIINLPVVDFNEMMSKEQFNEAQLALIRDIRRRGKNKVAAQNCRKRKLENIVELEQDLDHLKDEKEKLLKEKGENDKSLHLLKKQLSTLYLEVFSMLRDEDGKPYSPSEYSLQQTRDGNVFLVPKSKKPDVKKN
Keap1/Nrf2, sequence (Q14145 whole entry): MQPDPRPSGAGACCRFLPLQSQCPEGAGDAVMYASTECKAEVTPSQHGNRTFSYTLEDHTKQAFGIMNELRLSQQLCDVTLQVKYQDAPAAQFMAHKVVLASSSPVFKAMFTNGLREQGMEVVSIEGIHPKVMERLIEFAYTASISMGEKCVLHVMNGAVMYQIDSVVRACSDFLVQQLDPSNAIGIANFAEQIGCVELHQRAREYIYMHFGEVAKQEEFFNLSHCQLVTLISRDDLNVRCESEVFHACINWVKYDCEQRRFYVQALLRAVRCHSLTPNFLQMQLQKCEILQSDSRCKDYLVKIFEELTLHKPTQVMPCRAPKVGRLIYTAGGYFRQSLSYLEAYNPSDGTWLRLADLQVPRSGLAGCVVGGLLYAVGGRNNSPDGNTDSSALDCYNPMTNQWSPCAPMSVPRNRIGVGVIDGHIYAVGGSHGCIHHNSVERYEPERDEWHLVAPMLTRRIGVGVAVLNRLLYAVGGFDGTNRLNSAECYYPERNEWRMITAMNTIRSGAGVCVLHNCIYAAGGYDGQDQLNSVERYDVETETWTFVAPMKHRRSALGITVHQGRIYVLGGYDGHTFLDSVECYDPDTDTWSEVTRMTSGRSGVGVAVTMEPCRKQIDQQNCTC

SMILES: COc1ccc(S(=O)(=O)N(CC(N)=O)c2ccc(N(CC(N)=O)S(=O)(=O)c3ccc(SCCOCCOCCN=C=S)cc3)c3ccccc23)cc1
- Kd [1]: > 10 µM
- CC50 at 24 h [2]: > 10 µM

SMILES: COc1ccc(S(=O)(=O)N(CC(N)=O)c2ccc(N(CC(N)=O)S(=O)(=O)c3ccc(S(=O)(=O)CCOCCN=C=S)cc3)c3ccccc23)cc1
- Kd [1]: 2.3 µM
- CC50 at 24 h [2]: > 10 µM

SMILES: COc1ccc(S(=O)(=O)N(CC(N)=O)c2ccc(N(CC(N)=O)S(=O)(=O)c3ccc(SCCOCCOCCOCCN=C=S)cc3)c3ccccc23)cc1
- Kd [1]: > 10 µM
- CC50 at 24 h [2]: > 10 µM

SMILES: COc1ccc(S(=O)(=O)N(CC(N)=O)c2ccc(N(CC(N)=O)S(=O)(=O)c3ccc(SCCCCN=C=S)cc3)c3ccccc23)cc1
- Kd [1]: > 10 µM
- CC50 at 24 h [2]: > 10 µM

SMILES: COc1ccc(S(=O)(=O)N(CC(N)=O)c2ccc(N(CC(N)=O)S(=O)(=O)c3ccc(SCCN=C=S)cc3)c3ccccc23)cc1
- Kd [1]: 3.5 µM
- CC50 at 24 h [2]: > 10 µM

SMILES: COc1ccc(S(=O)(=O)N(CC(N)=O)c2ccc(N(CC(N)=O)S(=O)(=O)c3ccc([S+]([O-])CCCCCN=C=S)cc3)c3ccccc23)cc1 (centres undefined)
- Kd [1]: 1.83 µM
- CC50 at 24 h [2]: > 10 µM

SMILES: COc1ccc(S(=O)(=O)N(CC(N)=O)c2ccc(N(CC(N)=O)S(=O)(=O)c3ccc(S(=O)(=O)CCCN=C=S)cc3)c3ccccc23)cc1
- Kd [1]: > 10 µM
- CC50 at 24 h [2]: > 10 µM

SMILES: COc1ccc(S(=O)(=O)N(CC(N)=O)c2ccc(N(CC(N)=O)S(=O)(=O)c3ccc([S+]([O-])CCCN=C=S)cc3)c3ccccc23)cc1 (centres undefined)
- Activity [3]: Active
- Kd [1]: 0.455 µM
- inhibition [4]: Tde
- inhibition [5]: Tde
- inhibition [6]: Dose-Dependent Effect
- Activity [7]: Active
- Activity [8]: Active
- inhibition [9]: Dose-Dependent Effect
- inhibition [10]: Active
- CC50 at 24 h [2]: > 10 µM
- Activity [11]: Active
- Activity [12]: Active
- inhibition [13]: Active
- Activity [14]: Active
- Activity [15]: Active
- Activity [16]: Active
- Activity [17]: Active
- Activity [18]: Active

SMILES: COc1ccc(S(=O)(=O)N(CC(N)=O)c2ccc(N(CC(N)=O)S(=O)(=O)c3ccc(SCCCCCN=C=S)cc3)c3ccccc23)cc1
- Kd [1]: > 10 µM
- CC50 at 24 h [2]: > 10 µM

SMILES: COc1ccc(S(=O)(=O)N(CC(N)=O)c2ccc(N(CC(N)=O)S(=O)(=O)c3ccc(S(=O)(=O)CCCCN=C=S)cc3)c3ccccc23)cc1
- Kd [1]: > 10 µM
- CC50 at 24 h [2]: > 10 µM

SMILES: COc1ccc(S(=O)(=O)N(CC(N)=O)c2ccc(N(CC(N)=O)S(=O)(=O)c3ccc(S(=O)(=O)CCCCCN=C=S)cc3)c3ccccc23)cc1
- Kd [1]: > 10 µM
- CC50 at 24 h [2]: > 10 µM

SMILES: COc1ccc(S(=O)(=O)N(CC(N)=O)c2ccc(N(CC(N)=O)S(=O)(=O)c3ccc(N=C=S)cc3)c3ccccc23)cc1
- Kd [1]: 0.106 µM
- Activity [7]: Active
- CC50 at 24 h [2]: > 10 µM
- Activity [15]: Active
- Activity [16]: Active

SMILES: COc1ccc(S(=O)(=O)N(CC(N)=O)c2ccc(N(CC(N)=O)S(=O)(=O)c3ccc(S(=O)(=O)CCOCCOCCOCCN=C=S)cc3)c3ccccc23)cc1
- Kd [1]: > 10 µM
- CC50 at 24 h [2]: > 10 µM

SMILES: C[S+]([O-])CCCCN=C=S (centres undefined) [SULFORAPHANE]
- inhibition [4]: Tde
- inhibition [5]: Tde
- Activity [7]: Active
- inhibition [10]: Active
- CC50 at 24 h [2]: > 10 µM
- inhibition [13]: Active
- Activity [15]: Active
- Activity [16]: Active

SMILES: COc1ccc(S(=O)(=O)N(CC(N)=O)c2ccc(N(CC(N)=O)S(=O)(=O)c3ccc(S(=O)(=O)CCN=C=S)cc3)c3ccccc23)cc1
- Kd [1]: 0.658 µM
- Activity [7]: Active
- CC50 at 24 h [2]: > 10 µM
- Activity [15]: Active
- Activity [16]: Active

SMILES: COc1ccc(S(=O)(=O)N(CC(N)=O)c2ccc(N(CC(N)=O)S(=O)(=O)c3ccc([S+]([O-])CCOCCOCCN=C=S)cc3)c3ccccc23)cc1 (centres undefined)
- Kd [1]: 1.09 µM
- CC50 at 24 h [2]: > 10 µM

SMILES: COc1ccc(S(=O)(=O)N(CC(N)=O)c2ccc(N(CC(N)=O)S(=O)(=O)c3ccc([S+]([O-])CCN=C=S)cc3)c3ccccc23)cc1 (centres undefined)
- Kd [1]: 1.49 µM
- CC50 at 24 h [2]: > 10 µM

SMILES: COc1ccc(S(=O)(=O)N(CC(N)=O)c2ccc(N(CC(N)=O)S(=O)(=O)c3ccc([S+]([O-])CCOCCOCCOCCN=C=S)cc3)c3ccccc23)cc1 (centres undefined)
- Kd [1]: > 10 µM
- CC50 at 24 h [2]: > 10 µM

SMILES: COc1ccc(S(=O)(=O)N(CC(N)=O)c2ccc(N(CC(N)=O)S(=O)(=O)c3ccc(SCCCN=C=S)cc3)c3ccccc23)cc1
- Kd [1]: > 10 µM
- CC50 at 24 h [2]: > 10 µM

SMILES: COc1ccc(S(=O)(=O)N(CC(N)=O)c2ccc(N(CC(N)=O)S(=O)(=O)c3ccc(SCCOCCN=C=S)cc3)c3ccccc23)cc1
- Kd [1]: 8.51 µM
- CC50 at 24 h [2]: > 10 µM

SMILES: COc1ccc(S(=O)(=O)N(CC(N)=O)c2ccc(N(CC(N)=O)S(=O)(=O)c3ccc([S+]([O-])CCOCCN=C=S)cc3)c3ccccc23)cc1 (centres undefined)
- Kd [1]: 3.08 µM
- CC50 at 24 h [2]: > 10 µM

SMILES: COc1ccc(S(=O)(=O)N(CC(N)=O)c2ccc(N(CC(N)=O)S(=O)(=O)c3ccc(S(=O)(=O)CCOCCOCCN=C=S)cc3)c3ccccc23)cc1
- Kd [1]: 1.22 µM
- CC50 at 24 h [2]: > 10 µM

SMILES: COc1ccc(S(=O)(=O)N(CC(N)=O)c2ccc(N(CC(N)=O)S(=O)(=O)c3ccc([S+]([O-])CCCCN=C=S)cc3)c3ccccc23)cc1 (centres undefined)
- Kd [1]: 1.27 µM
- CC50 at 24 h [2]: > 10 µM
